Measurements reported in ChEMBL document CHEMBL1201862, “PubChem BioAssay data set” (2004).
The source made the active and inactive calls.

Columns and labels:
[1] = biological target: Acyl-homoserine lactone acylase PvdQ (Pseudomonas aeruginosa (strain LESB58), UniProt Q9I194); experiment: PvdQ acylase enzyme activity blockers – biochemical, fluorescence, plate reader and imaging, cherry-picks, dose response (AID 493231)
[2] = biological target: Neurotensin receptor type 1 (Homo sapiens, UniProt P30989); type: functional;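 further: Image-based confirmatory dose-response assay measuring agonist activity at NTR1; NTR1-expressing U2OS osteosarcoma cells imaged for beta-arrestin GFP spot formation; agonist potency where compounds increase beta-arrestin recruitment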
Bcl-2-like protein 10 = biological target: T1, Bcl-2-like protein 10 (Homo sapiens, UniProt Q9HD36); experiment: Bcl-B/TR3 peptide binding disruption – biochemical, fluorescence polarization, FITC-TR3 peptide, selectivity assay for Bfl-1 inhibitor project, primary screen (AID 748);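 further: fluorescence polarization from a fluorescein-labelled TR3 peptide binding purified Bcl-B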
T1 sequence (Q9HD36 whole entry): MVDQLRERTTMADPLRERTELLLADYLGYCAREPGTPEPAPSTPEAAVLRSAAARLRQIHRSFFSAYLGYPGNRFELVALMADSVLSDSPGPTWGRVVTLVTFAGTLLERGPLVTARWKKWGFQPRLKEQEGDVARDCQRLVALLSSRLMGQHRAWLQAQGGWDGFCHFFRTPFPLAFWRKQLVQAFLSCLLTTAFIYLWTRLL

[3] = biological target: Cyclin-dependent kinase 5/CDK5 activator 1 (Homo sapiens, UniProt Q00535); experiment: blockade of human CDK5 activity – biochemical, cherry-picked samples, set 2, dose response (AID 504545)
Aspartyl aminopeptidase = biological target: T2, Aspartyl aminopeptidase (Plasmodium falciparum 3D7, UniProt Q8I2J3)
T2 sequence (Q8I2J3 whole entry): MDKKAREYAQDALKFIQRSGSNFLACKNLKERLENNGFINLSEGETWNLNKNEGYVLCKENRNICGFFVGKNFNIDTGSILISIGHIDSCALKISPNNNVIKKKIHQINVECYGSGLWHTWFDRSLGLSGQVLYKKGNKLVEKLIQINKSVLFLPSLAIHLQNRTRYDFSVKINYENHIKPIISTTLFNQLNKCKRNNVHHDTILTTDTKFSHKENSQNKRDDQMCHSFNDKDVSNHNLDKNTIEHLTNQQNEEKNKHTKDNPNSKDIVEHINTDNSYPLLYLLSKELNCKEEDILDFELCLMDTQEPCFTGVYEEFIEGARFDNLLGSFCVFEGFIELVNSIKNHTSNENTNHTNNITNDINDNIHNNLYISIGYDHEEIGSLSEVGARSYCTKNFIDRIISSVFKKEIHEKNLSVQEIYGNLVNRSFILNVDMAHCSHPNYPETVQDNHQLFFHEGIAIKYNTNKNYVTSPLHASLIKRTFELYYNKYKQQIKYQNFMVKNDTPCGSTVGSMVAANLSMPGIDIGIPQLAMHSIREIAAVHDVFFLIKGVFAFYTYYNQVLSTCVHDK

Leucine aminopeptidase = biological target: T3, Leucine aminopeptidase (Plasmodium falciparum 3D7, UniProt Q8IL11); experiment: P. falciparum M17LAP inhibitors, primary screen, biochemical, fluorogenic H-Leu-NHMec substrate, 1536-well (AID 1619); type: functional
T3 sequence (Q8IL11 whole entry): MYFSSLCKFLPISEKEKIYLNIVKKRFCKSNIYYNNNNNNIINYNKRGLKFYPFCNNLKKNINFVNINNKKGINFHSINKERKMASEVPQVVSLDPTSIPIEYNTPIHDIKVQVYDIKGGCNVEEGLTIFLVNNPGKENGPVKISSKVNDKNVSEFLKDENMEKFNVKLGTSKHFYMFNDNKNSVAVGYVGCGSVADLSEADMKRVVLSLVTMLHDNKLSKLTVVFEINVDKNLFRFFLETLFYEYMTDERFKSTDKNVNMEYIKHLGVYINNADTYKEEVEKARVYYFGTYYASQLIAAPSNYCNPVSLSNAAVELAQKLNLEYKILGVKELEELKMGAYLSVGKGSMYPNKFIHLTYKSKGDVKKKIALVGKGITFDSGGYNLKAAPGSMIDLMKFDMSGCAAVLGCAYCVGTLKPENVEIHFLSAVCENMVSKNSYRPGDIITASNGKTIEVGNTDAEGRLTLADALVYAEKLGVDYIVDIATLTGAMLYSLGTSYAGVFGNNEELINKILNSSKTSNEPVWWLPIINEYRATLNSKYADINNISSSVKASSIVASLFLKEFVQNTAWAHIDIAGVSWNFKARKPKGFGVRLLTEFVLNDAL

Procathepsin L = Procathepsin L (Homo sapiens, UniProt P07711)
Protein Rev = Protein Rev (Human immunodeficiency virus type 1 group M subtype B (isolate HXB2)(HIV-1), UniProt P04618); experiment: blockers of HIV Rev/RRE RNA complex – biochemical, fluorescence polarization, HIV-1, dose response (AID 434976); design: species or system Human immunodeficiency virus 1
[4] = biological target: Female germline-specific tumor suppressor gld-1 (Caenorhabditis elegans, UniProt Q17339); experiment: blockers of GLD-1/TGE RNA complex formation – biochemical, fluorescence polarization, C. elegans, dose response (AID 2802);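 further: fluorescence polarization of labeled TGE RNA bound by purified gld-1 protein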
[5] = biological target: T4, Polyadenylate-binding protein 1 (Homo sapiens, UniProt P11940); experiment: MLLE domain peptide-binding blockers, IC50 – biochemical, fluorescence polarization, FITC-PAM2 peptide, dose response (AID 602259); type: functional; settings: read-out: IC50_Mean
[6] = biological target: T4, Polyadenylate-binding protein 1; experiment: MLLE binding blockers, Cy5 peptide tracer – biochemical, fluorescence polarization, Cy5-PAM2 peptide, secondary, miRNA deadenylation inhibitor project, dose response (AID 602260); type: functional; settings: read-out: IC50_Mean
[7] = biological target: T5, DNA repair and recombination protein RAD54-like (Homo sapiens, UniProt Q92698); experiment: RAD54 Holliday junction migration blockers – biochemical, fluorescence, cherry-picked samples, dose series, confirmation (AID 651657); type: functional
T5 sequence (Q92698 whole entry): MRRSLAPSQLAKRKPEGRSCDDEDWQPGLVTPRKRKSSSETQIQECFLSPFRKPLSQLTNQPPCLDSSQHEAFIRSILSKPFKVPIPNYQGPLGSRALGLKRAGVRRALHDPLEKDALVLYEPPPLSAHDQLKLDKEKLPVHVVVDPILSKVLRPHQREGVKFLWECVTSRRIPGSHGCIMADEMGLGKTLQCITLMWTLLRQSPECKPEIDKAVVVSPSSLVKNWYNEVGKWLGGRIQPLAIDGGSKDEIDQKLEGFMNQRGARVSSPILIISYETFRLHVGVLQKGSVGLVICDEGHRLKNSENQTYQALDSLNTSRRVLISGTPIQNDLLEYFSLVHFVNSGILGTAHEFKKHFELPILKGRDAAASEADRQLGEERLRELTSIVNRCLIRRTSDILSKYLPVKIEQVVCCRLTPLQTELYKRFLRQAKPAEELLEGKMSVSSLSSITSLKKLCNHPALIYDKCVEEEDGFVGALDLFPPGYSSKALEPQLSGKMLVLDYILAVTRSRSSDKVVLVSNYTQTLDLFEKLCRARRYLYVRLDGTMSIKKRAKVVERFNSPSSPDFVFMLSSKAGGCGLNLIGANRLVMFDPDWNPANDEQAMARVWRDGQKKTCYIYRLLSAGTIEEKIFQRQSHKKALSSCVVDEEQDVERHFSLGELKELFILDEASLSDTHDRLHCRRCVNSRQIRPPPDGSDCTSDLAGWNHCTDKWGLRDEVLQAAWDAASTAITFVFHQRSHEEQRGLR

[8] = A cytotoxicity screen of small molecule inhibitors of the PhoP region in Salmonella typhi identified in the primary screen. [Related pubchem assays: 1850, 1864, 1985 ]; type: functional
Cytochrome P450 2C9 = Cytochrome P450 2C9 (Homo sapiens, UniProt P11712); settings: Potency
[9] = biological target: T4, Polyadenylate-binding protein 1; experiment: blockers of PABP interaction with poly(A) – biochemical, fluorescence polarization, […] (AID 2014)
[10] = biological target: Eukaryotic translation initiation factor 4H (Homo sapiens, UniProt Q15056); experiment: eIF4H binding inhibition – biochemical, uHTS, fluorescence polarization, translation initiation inhibitor project, primary screen (AID 2012)
[11] = biological target: DNA dC->dU-editing enzyme APOBEC-3G (Homo sapiens, UniProt Q9HC16); type: functional;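 further: Dose-response counterscreen measuring inhibition of APOBEC3G DNA deaminase activity, run while confirming APOBEC3A inhibitors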
[12] = biological target: DNA dC->dU-editing enzyme APOBEC-3A (Homo sapiens, UniProt P31941); experiment: Dose Response confirmation of small molecule APOBEC3A DNA Deaminase Inhibitors via a fluorescence-based single-stranded DNA deaminase assay. [Related pubchem assays (depositor defined):AID493011, AID493024]; type: functional
Protein Tat = Protein Tat (Human immunodeficiency virus type 1 group M subtype B (isolate HXB2)(HIV-1), UniProt P04608); type: functional;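 further: tat binding to TAR RNA read out by fluorescence polarization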
[13] = viability loss in THP-1 monocytes – THP-1 cells, cytotoxicity control for Vif-APOBEC3G degradation inhibitor project, dose response (AID 1117359); type: functional; settings: THP-1

T4 sequence (P11940 whole entry, the tested form may be a part): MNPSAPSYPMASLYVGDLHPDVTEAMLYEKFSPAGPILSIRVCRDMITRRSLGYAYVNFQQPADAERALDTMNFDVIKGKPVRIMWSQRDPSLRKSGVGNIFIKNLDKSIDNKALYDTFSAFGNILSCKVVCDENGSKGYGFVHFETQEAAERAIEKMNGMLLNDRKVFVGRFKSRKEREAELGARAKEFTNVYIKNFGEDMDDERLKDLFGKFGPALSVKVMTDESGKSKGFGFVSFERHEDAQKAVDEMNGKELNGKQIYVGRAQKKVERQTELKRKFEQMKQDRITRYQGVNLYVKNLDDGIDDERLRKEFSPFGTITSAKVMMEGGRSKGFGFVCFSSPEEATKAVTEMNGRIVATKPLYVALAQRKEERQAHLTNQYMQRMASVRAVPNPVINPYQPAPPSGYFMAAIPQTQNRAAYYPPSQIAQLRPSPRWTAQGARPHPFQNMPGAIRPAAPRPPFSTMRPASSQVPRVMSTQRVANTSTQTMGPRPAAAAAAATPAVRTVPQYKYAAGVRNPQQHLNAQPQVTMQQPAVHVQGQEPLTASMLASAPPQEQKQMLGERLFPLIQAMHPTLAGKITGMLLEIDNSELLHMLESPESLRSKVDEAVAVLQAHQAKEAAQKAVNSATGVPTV
Cytochrome P450 2C9, sequence (P11712 whole entry): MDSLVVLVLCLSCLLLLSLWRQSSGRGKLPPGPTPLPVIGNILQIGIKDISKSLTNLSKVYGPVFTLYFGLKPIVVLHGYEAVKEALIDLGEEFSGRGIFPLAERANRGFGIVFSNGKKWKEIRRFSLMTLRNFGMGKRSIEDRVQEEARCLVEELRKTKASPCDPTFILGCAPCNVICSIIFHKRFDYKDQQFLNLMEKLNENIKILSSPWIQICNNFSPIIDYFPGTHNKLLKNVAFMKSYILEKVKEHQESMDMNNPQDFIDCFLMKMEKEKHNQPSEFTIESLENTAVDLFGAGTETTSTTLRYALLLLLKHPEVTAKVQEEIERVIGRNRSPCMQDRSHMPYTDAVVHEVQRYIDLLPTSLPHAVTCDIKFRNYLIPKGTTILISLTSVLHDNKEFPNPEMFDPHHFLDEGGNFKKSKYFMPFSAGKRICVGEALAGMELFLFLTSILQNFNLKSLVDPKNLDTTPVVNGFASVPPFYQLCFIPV
Protein Rev, sequence (P04618 whole entry): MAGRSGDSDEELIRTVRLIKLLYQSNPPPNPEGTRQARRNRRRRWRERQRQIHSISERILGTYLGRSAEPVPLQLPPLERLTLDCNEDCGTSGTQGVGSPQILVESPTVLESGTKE
Female germline-specific tumor suppressor gld-1, sequence (Q17339 whole entry, the tested form may be a part): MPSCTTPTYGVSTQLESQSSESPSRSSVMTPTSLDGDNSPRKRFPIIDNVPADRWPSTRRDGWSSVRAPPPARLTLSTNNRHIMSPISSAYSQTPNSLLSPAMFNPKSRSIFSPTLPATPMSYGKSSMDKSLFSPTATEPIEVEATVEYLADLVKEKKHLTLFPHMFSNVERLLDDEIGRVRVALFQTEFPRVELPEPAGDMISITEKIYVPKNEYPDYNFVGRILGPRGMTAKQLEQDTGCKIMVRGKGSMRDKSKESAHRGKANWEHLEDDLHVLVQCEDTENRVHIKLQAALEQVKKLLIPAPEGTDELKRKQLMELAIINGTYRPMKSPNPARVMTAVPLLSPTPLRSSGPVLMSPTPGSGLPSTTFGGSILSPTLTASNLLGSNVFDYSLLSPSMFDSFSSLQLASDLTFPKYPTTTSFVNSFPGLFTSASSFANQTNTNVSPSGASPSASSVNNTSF
Acyl-homoserine lactone acylase PvdQ, sequence (Q9I194 24-193 limits assumed): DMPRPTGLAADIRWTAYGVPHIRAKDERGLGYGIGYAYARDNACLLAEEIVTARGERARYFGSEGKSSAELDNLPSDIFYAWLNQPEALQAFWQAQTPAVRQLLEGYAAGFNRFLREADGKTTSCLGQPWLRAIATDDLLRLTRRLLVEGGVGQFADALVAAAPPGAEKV
Acyl-homoserine lactone acylase PvdQ, sequence (Q9I194 217-762 limits assumed): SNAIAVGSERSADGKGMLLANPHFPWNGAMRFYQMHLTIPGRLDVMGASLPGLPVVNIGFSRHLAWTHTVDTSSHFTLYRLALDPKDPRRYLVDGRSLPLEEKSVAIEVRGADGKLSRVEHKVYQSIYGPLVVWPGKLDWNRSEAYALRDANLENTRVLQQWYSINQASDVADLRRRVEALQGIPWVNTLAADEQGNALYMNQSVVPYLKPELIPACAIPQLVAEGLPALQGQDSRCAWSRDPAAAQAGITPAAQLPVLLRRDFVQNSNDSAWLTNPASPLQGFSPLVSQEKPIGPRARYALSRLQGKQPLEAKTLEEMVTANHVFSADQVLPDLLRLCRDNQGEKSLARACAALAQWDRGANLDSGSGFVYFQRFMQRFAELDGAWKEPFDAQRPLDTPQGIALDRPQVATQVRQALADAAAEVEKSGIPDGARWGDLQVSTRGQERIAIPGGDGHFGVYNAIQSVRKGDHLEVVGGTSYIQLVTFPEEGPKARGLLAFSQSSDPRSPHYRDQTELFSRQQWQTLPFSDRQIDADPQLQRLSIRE
Cyclin-dependent kinase 5/CDK5 activator 1, sequence (Q00535 whole entry): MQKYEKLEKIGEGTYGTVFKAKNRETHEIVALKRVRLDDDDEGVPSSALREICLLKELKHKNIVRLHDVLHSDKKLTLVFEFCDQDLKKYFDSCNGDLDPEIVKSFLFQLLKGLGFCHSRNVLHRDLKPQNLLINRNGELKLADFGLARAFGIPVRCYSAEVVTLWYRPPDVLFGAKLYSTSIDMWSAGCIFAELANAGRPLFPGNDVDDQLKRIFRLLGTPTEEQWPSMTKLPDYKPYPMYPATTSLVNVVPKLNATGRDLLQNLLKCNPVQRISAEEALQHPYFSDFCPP
Cyclin-dependent kinase 5/CDK5 activator 1, sequence (Q15078 whole entry, further chain): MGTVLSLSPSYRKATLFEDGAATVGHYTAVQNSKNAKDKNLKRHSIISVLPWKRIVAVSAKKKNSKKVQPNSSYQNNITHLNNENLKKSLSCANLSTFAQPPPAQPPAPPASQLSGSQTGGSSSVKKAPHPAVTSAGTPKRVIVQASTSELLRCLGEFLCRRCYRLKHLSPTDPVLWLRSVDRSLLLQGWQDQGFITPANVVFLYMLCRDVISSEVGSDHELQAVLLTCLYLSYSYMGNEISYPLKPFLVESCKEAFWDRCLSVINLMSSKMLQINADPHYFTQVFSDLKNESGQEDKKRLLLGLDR
Procathepsin L, sequence (P07711 whole entry): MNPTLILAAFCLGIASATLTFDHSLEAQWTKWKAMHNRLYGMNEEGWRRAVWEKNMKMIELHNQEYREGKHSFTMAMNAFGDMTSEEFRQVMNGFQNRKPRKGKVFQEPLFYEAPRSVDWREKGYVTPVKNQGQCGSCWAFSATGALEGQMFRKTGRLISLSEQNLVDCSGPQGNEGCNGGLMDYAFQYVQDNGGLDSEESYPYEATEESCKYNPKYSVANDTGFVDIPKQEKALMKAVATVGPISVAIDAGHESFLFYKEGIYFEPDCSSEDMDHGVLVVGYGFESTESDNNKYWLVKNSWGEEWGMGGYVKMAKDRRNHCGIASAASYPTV
DNA dC->dU-editing enzyme APOBEC-3A, sequence (P31941 whole entry): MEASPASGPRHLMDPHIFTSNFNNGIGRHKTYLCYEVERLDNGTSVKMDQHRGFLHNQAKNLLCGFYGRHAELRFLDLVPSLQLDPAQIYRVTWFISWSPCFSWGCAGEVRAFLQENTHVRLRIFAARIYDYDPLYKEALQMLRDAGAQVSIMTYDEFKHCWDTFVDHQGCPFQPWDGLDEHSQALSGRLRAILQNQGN
Protein Tat, sequence (P04608 whole entry): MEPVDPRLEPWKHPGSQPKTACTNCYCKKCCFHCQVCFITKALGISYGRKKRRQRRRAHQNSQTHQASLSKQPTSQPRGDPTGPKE
Neurotensin receptor type 1, sequence (P30989 whole entry): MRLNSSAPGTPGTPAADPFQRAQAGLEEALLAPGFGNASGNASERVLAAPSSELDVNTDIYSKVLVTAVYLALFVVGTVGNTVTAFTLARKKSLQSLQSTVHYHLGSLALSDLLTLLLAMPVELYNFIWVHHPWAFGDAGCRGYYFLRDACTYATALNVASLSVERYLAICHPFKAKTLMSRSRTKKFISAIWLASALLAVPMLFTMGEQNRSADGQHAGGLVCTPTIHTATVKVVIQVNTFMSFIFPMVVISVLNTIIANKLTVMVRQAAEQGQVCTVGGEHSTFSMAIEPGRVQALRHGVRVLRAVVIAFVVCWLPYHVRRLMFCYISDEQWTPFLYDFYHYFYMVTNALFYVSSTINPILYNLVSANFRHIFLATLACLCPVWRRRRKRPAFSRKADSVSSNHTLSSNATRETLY
DNA dC->dU-editing enzyme APOBEC-3G, sequence (Q9HC16 whole entry): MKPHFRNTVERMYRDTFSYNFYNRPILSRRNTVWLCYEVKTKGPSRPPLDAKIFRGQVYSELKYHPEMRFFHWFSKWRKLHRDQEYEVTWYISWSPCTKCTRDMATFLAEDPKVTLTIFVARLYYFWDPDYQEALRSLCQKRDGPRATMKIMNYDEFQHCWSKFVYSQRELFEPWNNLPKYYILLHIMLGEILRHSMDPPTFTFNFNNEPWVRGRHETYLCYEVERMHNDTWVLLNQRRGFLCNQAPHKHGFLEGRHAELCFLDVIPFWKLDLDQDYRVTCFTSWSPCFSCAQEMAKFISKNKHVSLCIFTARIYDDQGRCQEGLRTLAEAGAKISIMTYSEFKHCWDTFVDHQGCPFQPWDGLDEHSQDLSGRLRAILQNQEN

SMILES: Cc1cc(C)nc(N(C#N)Cc2ccc(Cl)cc2)n1
- AC50 [1]: 21.9 µM (active)

SMILES: CCCCn1c(SCC(=O)N2CCC(C)CC2)nc2cc(S(N)(=O)=O)ccc21
- EC50 [2]: 20.7 µM (inactive)

SMILES: COc1ccc(-c2nc3n(n2)C(c2cccnc2)C(C(N)=O)=C(C)N3)cc1 (configuration not stated)
- IC50 (Bcl-2-like protein 10): > 100 µM (inactive)

SMILES: COc1cc(C(=O)N2CCN(c3ccccn3)CC2)cc(OC)c1OC
- AC50 [3]: 2.75 µM (active)

SMILES: O=C(CSc1nnc[nH]1)OCN1C(=O)c2ccccc2C1=O
- IC50 (Aspartyl aminopeptidase): 0.35 µM (active)
- IC50 (Leucine aminopeptidase): 64.4 µM (active)
- IC50 (Procathepsin L): > 59.6 µM (not active)

SMILES: Cc1ccc[n+](-c2nc([O-])sc2C=NNc2ccc([N+](=O)[O-])cc2)c1
- IC50 (Protein Rev): 10.1 µM (not active)
- IC50 [4]: 3.96 µM (active)
- IC50 [5]: 33.3 µM (inactive)
- IC50 [6]: > 66 µM (inactive)

SMILES: COc1cc2c(C#N)c(N3CCN(C)CC3)nc(N)c2c(N)n1
- IC50 (Bcl-2-like protein 10): > 100 µM (inactive)
- AC50 [7]: 28.9 µM (active)

SMILES: COc1nnc(-c2ccc(N3CCOCC3)c(NC(=O)c3ccc(C)cc3)c2)c2ccccc12
- EC50 [8]: > 50 µM (active)

SMILES: Cc1cc(C)nc(N(C#N)Cc2ccccc2)n1
- AC50 [1]: 9.18 µM (active)

SMILES: NCCC[C@@H](CC(=O)N[C@@H]1CCCC[C@H]1C(=O)N[C@H](CC(=O)N[C@@H](CCC(=O)O)CC(=O)O)Cc1ccccc1)NC(=O)C[C@H](CO)NC(=O)[C@@H]1CCCC[C@H]1N
- AC50 (Cytochrome P450 2C9): 39.8 µM (inconclusive)

SMILES: Cc1ccc(NC2=NCCCS2)cc1Cl
- EC50 [8]: > 50 µM (active)

SMILES: CCN1C(NCCOC)=N[C@@H](c2cccc(F)c2)C(C(=O)OC)=C1C
- IC50 [9]: 12.8 µM (active)
- IC50 [10]: > 100 µM (inactive)
- IC50 [11]: 5.2 µM (active)
- IC50 [12]: 3.86 µM (active)

SMILES: CN1CCN(c2ncc3nc(-c4cccc(C#N)c4)c(=O)n(C[C@H]4CCCO4)c3n2)CC1
- AC50 (Cytochrome P450 2C9): 25.1 µM (inconclusive)

SMILES: NC(=O)c1cc([N+](=O)[O-])c(Cl)cc1NCc1cccnc1
- AC50 [3]: 14.3 µM (active)

SMILES: COc1ccc(/C=N/c2c(-c3ccco3)nc3ccccn23)cc1OC
- IC50 (Protein Rev): 56.1 µM (not active)
- IC50 [4]: 3.71 µM (active)
- IC50 (Protein Tat): 8.15 µM (inconclusive)
- CC50 [13]: > 40 µM (active)
